Legend:
crabgrass = assay: Test B pre/postemergence crabgrass; format: in vivo, Digitaria sanguinalis
Summary of the method: (§1)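 Herbicidal effect was estimated by eye on a ten-point control scale after plants spent twelve to sixteen days in a greenhouse following soil or foliar treatment. Foliar sprays targeted plants at one to four leaves; all doses were formulated in a non-phytotoxic solvent with surfactant.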

rice = assay: Test B flood test rice; format: in vivo, Oryza sativa
Summary of the method: (§2)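 Plants were grown to the 2-leaf stage before treatment with test chemical, then held in a greenhouse for twelve to sixteen days. Injury was visually rated against untreated controls on a 0–10 scale, where 0 is no effect and 10 is complete control.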

rape = assay: Test B pre/postemergence rape; format: in vivo, Brassica napus; settings: for Plant response rating, Rape: scale of 0 to 10 where 0 is no effect and 10 is complete control
Summary of the method: as §1

sugar beet = assay: Test B pre/postemergence sugar beet; format: in vivo, Beta vulgaris; settings: for Plant response rating, Sugarbeets: scale of 0 to 10 where 0 is no effect and 10 is complete control
Summary of the method: as §1

soybean = assay: Test B pre/postemergence soybean; format: in vivo, Glycine max; settings: for Plant response rating, Soybean: scale of 0 to 10 where 0 is no effect and 10 is complete control
Summary of the method: as §1

corn = assay: Test B pre/postemergence corn; format: in vivo, Zea mays
Summary of the method: as §1

wild oat = assay: Test B pre/postemergence wild oat; format: in vivo, Avena fatua; settings: for Plant response rating, Wild oats: scale of 0 to 10 where 0 is no effect and 10 is complete control
Summary of the method: as §1

cocklebur = assay: Test B pre/postemergence cocklebur; format: in vivo, Xanthium strumarium
Summary of the method: as §1

purple nutsedge = assay: Test B pre/postemergence purple nutsedge; format: in vivo, Cyperus rotundus; settings: for Plant response rating, Nutsedge: scale of 0 to 10 where 0 is no effect and 10 is complete control
Summary of the method: as §1

velvetleaf = assay: Test B pre/postemergence velvetleaf; format: in vivo, Abutilon theophrasti; settings: for Plant response rating, Velvetleaf: scale of 0 to 10 where 0 is no effect and 10 is complete control
Summary of the method: as §1

wheat = assay: Test B pre/postemergence wheat; format: in vivo, Triticum aestivum; settings: for Plant response rating, Wheat: scale of 0 to 10 where 0 is no effect and 10 is complete control
Summary of the method: as §1

bamyardgrass = assay: Test B flood test barnyardgrass; format: in vivo, Echinochloa crus-galli
Summary of the method: as §2

surinam grass = assay: Test B pre/postemergence surinam grass; format: in vivo, Brachiaria decumbens
Summary of the method: as §1

blackgrass = assay: Test B pre/postemergence blackgrass; format: in vivo, Alopecurus myosuroides
Summary of the method: as §1

smallflower flatsedge = assay: Test B flood test smallflower flatsedge; format: in vivo, Cyperus difformis
Summary of the method: as §2

pigweed = assay: Test B pre/postemergence pigweed; format: in vivo, Amaranthus retroflexus; settings: for Plant response rating, Redroot pigweed: scale of 0 to 10 where 0 is no effect and 10 is complete control
Summary of the method: as §1

morningglory = assay: Test B pre/postemergence morningglory; format: in vivo, Ipomoea hederacea; settings: for Plant response rating, Morningglory: scale of 0 to 10 where 0 is no effect and 10 is complete control
Summary of the method: as §1

giant foxtail = assay: Test B pre/postemergence giant foxtail; format: in vivo, Setaria faberii
Summary of the method: as §1

duck salad = assay: Test B flood test duck salad; format: in vivo, Heteranthera limosa
Summary of the method: as §2

[1] = Postemergence, Rate 250 g/ha, scale 0 to 10
[2] = Postemergence, Rate 500 g/ha, scale of 0 to 10 where 0 is no effect and 10 is complete control
[3] = Preemergence, Rate 62 g/ha, scale of 0 to 10 where 0 is no effect and 10 is complete control
[4] = Preemergence, Rate 125 g/ha, scale of 0 to 10 where 0 is no effect and 10 is complete control
[5] = Preemergence, Rate 250 g/ha, scale 0 to 10, 0 is no effect, 10 is complete control
[6] = Preemergence, Rate 500 g/ha, scale 0 to 10, 0 is no effect, 10 is complete control
[7] = Rate 62 g/ha, Postemergence, scale 0 to 10 (0 no effect, 10 complete control)
[8] = Rate 125 g/ha, Postemergence, scale 0 to 10, 0 is no effect, 10 is complete control
[9] = Rate 62 g/ha, flood test species, Pre-emergence, visual evaluation after twelve to sixteen days
[10] = Rate 125 g/ha, under heading Pre-emergence, flood test species, visual evaluation after twelve to sixteen days
[11] = Rate 250 g/ha, Pre-emergence (flood test species), scale 0 to 10, 0 is no effect, 10 is complete control
[12] = Rate 500 g/ha, Pre-emergence, flood test species, scale 0 to 10 (0 no effect, 10 complete control)

COC(CCl)n1c(=O)on(C(=O)N(c2ccc(Cl)cc2)C(C)C)c1=O (stereo not shown) [Compound 458]
Crabgrass plant response rating (crabgrass; [1]): 8
Crabgrass plant response rating (crabgrass; [2]): 9
Plant response rating, Crabgrass (crabgrass; [3]): 6
Plant response rating, Crabgrass (crabgrass; [4]): 6
Crabgrass plant response rating (crabgrass; [5]): 9
Crabgrass plant response rating (crabgrass; [6]): 10
Crabgrass plant response rating (crabgrass; [7]): 2
Crabgrass plant response rating (crabgrass; [8]): 8
Plant response rating, Rice (0 to 10 scale, 0 is no effect, 10 is complete control) (rice; [9]): 0
Rice plant response rating (0 to 10 scale, 0 is no effect, 10 is complete control) (rice; [10]): 0
Rice plant response rating (rice; [11]): 0
Rice plant response rating (rice; [12]): 0
Rape plant response rating (rape; [1]): 0
Plant response rating, Rape (rape; Preemergence, Rate 62 g/ha): 0
Plant response rating, Rape (rape; Preemergence, Rate 125 g/ha): 0
Rape plant response rating (rape; [5]): 3
Rape plant response rating (rape; [6]): 4
Rape plant response rating (rape; [7]): 0
Rape plant response rating (rape; [8]): 0
Sugarbeets plant response rating (sugar beet; [1]): 0
Plant response rating, Sugarbeets (sugar beet; Preemergence, Rate 62 g/ha): 0
Plant response rating, Sugarbeets (sugar beet; Preemergence, Rate 125 g/ha): 0
Sugarbeets plant response rating (sugar beet; [5]): 2
Sugarbeets plant response rating (sugar beet; [6]): 8
Sugarbeets plant response rating (sugar beet; [7]): 0
Sugarbeets plant response rating (sugar beet; [8]): 0
Soybean plant response rating (soybean; [1]): 2
Plant response rating, Soybean (soybean; Preemergence, Rate 62 g/ha): 0
Plant response rating, Soybean (soybean; Preemergence, Rate 125 g/ha): 0
Soybean plant response rating (soybean; [5]): 0
Soybean plant response rating (soybean; [6]): 2
Soybean plant response rating (soybean; [7]): 0
Soybean plant response rating (soybean; [8]): 1
Corn plant response rating (corn; [1]): 2
Corn plant response rating (corn; [2]): 2
Plant response rating, Corn (corn; [3]): 0
Plant response rating, Corn (corn; [4]): 0
Corn plant response rating (corn; [5]): 0
Corn plant response rating (corn; [6]): 3
Corn plant response rating (corn; [7]): 0
Corn plant response rating (corn; [8]): 0
Wild oats plant response rating (wild oat; [1]): 2
Plant response rating, Wild oats (wild oat; Preemergence, Rate 62 g/ha): 0
Plant response rating, Wild oats (wild oat; Preemergence, Rate 125 g/ha): 2
Wild oats plant response rating (wild oat; [5]): 3
Wild oats plant response rating (wild oat; [6]): 10
Wild oats plant response rating (wild oat; [7]): 0
Wild oats plant response rating (wild oat; [8]): 0
Cocklebur plant response rating (cocklebur; [1]): 0
Cocklebur plant response rating (cocklebur; [2]): 2
Plant response rating, Cocklebur (cocklebur; [3]): 0
Plant response rating, Cocklebur (cocklebur; [4]): 0
Cocklebur plant response rating (cocklebur; [5]): 0
Cocklebur plant response rating (cocklebur; [6]): 0
Cocklebur plant response rating (cocklebur; [7]): 0
Cocklebur plant response rating (cocklebur; [8]): 0
Nutsedge plant response rating (purple nutsedge; [1]): 0
Plant response rating, Nutsedge (purple nutsedge; Preemergence, Rate 62 g/ha): 0
Plant response rating, Nutsedge (purple nutsedge; Preemergence, Rate 125 g/ha): 0
Nutsedge plant response rating (purple nutsedge; [5]): 0
Nutsedge plant response rating (purple nutsedge; [6]): 0
Nutsedge plant response rating (purple nutsedge; [7]): 0
Nutsedge plant response rating (purple nutsedge; [8]): 0
Velvetleaf plant response rating (velvetleaf; [1]): 0
Plant response rating, Velvetleaf (velvetleaf; Preemergence, Rate 62 g/ha): 0
Plant response rating, Velvetleaf (velvetleaf; Preemergence, Rate 125 g/ha): 0
Velvetleaf plant response rating (velvetleaf; [5]): 2
Velvetleaf plant response rating (velvetleaf; [6]): 6
Velvetleaf plant response rating (velvetleaf; [7]): 0
Velvetleaf plant response rating (velvetleaf; [8]): 0
Wheat plant response rating (wheat; [1]): 2
Plant response rating, Wheat (wheat; Preemergence, Rate 62 g/ha): 0
Plant response rating, Wheat (wheat; Preemergence, Rate 125 g/ha): 0
Wheat plant response rating (wheat; [5]): 0
Wheat plant response rating (wheat; [6]): 2
Wheat plant response rating (wheat; [7]): 0
Wheat plant response rating (wheat; [8]): 0
Plant response rating, Barnyardgrass (0 to 10 scale, 0 is no effect, 10 is complete control) (bamyardgrass; [9]): 0
Barnyardgrass plant response rating (0 to 10 scale, 0 is no effect, 10 is complete control) (bamyardgrass; [10]): 0
Barnyardgrass plant response rating (bamyardgrass; [11]): 0
Barnyardgrass plant response rating (bamyardgrass; [12]): 0
B. signalgrass plant response rating (surinam grass; Postemergence, Rate 250 g/ha, scale 0 to 10, 0 no effect, 10 complete control): 0
B. signalgrass plant response rating (surinam grass; [2]): 3
Plant response rating, B. signalgrass (surinam grass; [3]): 4
Plant response rating, B. signalgrass (surinam grass; [4]): 4
B. signalgrass plant response rating (surinam grass; [5]): 4
B. signalgrass plant response rating (surinam grass; [6]): 4
B. signalgrass plant response rating (surinam grass; [7]): 0
B. signalgrass plant response rating (surinam grass; [8]): 0
Blackgrass plant response rating (blackgrass; [1]): 8
Blackgrass plant response rating (blackgrass; [2]): 8
Plant response rating, Blackgrass (blackgrass; [3]): 6
Plant response rating, Blackgrass (blackgrass; [4]): 8
Blackgrass plant response rating (blackgrass; [5]): 8
Blackgrass plant response rating (blackgrass; [6]): 9
Blackgrass plant response rating (blackgrass; [7]): 0
Blackgrass plant response rating (blackgrass; [8]): 3
Plant response rating, S. Flatsedge (0 to 10 scale, 0 is no effect, 10 is complete control) (smallflower flatsedge; [9]): 0
S. Flatsedge plant response rating (0 to 10 scale, 0 is no effect, 10 is complete control) (smallflower flatsedge; [10]): 0
S. Flatsedge plant response rating (smallflower flatsedge; [11]): 0
S. Flatsedge plant response rating (smallflower flatsedge; [12]): 0
Redroot pigweed plant response rating (pigweed; [1]): 0
Plant response rating, Redroot pigweed (pigweed; Preemergence, Rate 62 g/ha): 0
Plant response rating, Redroot pigweed (pigweed; Preemergence, Rate 125 g/ha): 3
Redroot pigweed plant response rating (pigweed; [5]): 6
Redroot pigweed plant response rating (pigweed; [6]): 8
Redroot pigweed plant response rating (pigweed; [7]): 0
Redroot pigweed plant response rating (pigweed; [8]): 0
Morningglory plant response rating (morningglory; [1]): 3
Plant response rating, Morningglory (morningglory; Preemergence, Rate 62 g/ha): 0
Plant response rating, Morningglory (morningglory; Preemergence, Rate 125 g/ha): 0
Morningglory plant response rating (morningglory; [5]): 0
Morningglory plant response rating (morningglory; [6]): 0
Morningglory plant response rating (morningglory; [7]): 0
Morningglory plant response rating (morningglory; [8]): 0
Giant foxtail plant response rating (giant foxtail; [1]): 9
Giant foxtail plant response rating (giant foxtail; [2]): 9
Plant response rating, Giant foxtail (giant foxtail; [3]): 9
Plant response rating, Giant foxtail (giant foxtail; [4]): 9
Giant foxtail plant response rating (giant foxtail; [5]): 10
Giant foxtail plant response rating (giant foxtail; [6]): 10
Giant foxtail plant response rating (giant foxtail; [7]): 7
Giant foxtail plant response rating (giant foxtail; [8]): 9
Plant response rating, Ducksalad (0 to 10 scale, 0 is no effect, 10 is complete control) (duck salad; [9]): 0
Ducksalad plant response rating (0 to 10 scale, 0 is no effect, 10 is complete control) (duck salad; [10]): 0
Ducksalad plant response rating (duck salad; [11]): 0
Ducksalad plant response rating (duck salad; [12]): 0
